The text below walks through data of patent publication US8785598B2, “Coenzyme Q10 nanoparticles, preparation method thereof and composition containing said nanoparticles” (Korea Research Institute of Bioscience and Biotechnology, priority 2009, dated 2014).

A short description of the data set: Confirmation of solubilization of coenzyme Q10 nanoparticle (visual, FIG. 9). It counts as physicochemical. Conditions: dispersed in water. From the text:
FIG. 9 illustrates images of (1) coenzyme Q10 powder, (2) an aqueous solution separated into a supernatant layer when coenzyme Q10 is dispersed in water and (3) an aqueous solution of a coenzyme Q10 nanoparticle of Example 7 of the present invention.
As a result, a semi-transparent yellow aqueous solution was formed.

`COC1=C(OC)C(=O)C(C/C=C(\C)CC/C=C(\C)CC/C=C(\C)CC/C=C(\C)CC/C=C(\C)CC/C=C(\C)CC/C=C(\C)CC/C=C(\C)CC/C=C(\C)CCC=C(C)C)=C(C)C1=O` [coenzyme Q10]: the “solubility in water / appearance of aqueous solution” value is on record as “not soluble in water”.
